Reference: patent publication US7326700B2, “Cyclohexenyl phenyl carboxamides tocolytic oxytocin receptor antagonists” (Wyeth, priority 2001, dated 2008)
Where a name gives a salt, the structure may show the parent alone.

Each compound was assayed against T1, human vasopressin V1a receptor subtype (Homo sapiens, UniProt P37288) (assay: Vasopressin binding in CHO cell membranes expressing human vasopressin V1a subtype receptors ([3H]Manning ligand radioligand binding)). Conditions: 100 nM.
T1 construct: host or cells: CHO cells, stably transfected (pZeoSV vector for the Thibonnier line)
T1 sequence (P37288 whole entry): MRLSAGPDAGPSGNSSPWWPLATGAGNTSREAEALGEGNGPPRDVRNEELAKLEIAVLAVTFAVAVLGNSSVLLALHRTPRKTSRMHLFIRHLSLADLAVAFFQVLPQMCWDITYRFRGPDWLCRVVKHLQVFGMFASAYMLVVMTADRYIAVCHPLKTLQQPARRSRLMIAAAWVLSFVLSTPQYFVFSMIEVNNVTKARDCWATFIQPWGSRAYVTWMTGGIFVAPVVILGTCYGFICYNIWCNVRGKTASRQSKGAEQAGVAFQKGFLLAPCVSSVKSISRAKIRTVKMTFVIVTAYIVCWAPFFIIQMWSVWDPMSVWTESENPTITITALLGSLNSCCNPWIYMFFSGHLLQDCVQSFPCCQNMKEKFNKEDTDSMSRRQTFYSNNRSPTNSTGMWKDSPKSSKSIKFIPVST
Description: Chinese hamster ovary cells (CHO cells) stably transfected with the human vasopressin V1a subtype receptors were either obtained from Biosignal Inc., 1744 rue Williams, Montreal, Quebec, Canada or obtained from M. Thibonnier, Case Western Reserve University School of Medicine, Cleveland, Ohio.
CHO cells transfected with the human vasopressin V1a subtype receptors obtained from M. Thibonnier (pZeoSV vector) are allowed to grow to confluency (approx. >90%) in T-150 flasks under sterile conditions, in a cell culture medium consisting of F-12 Nutrient Mixture (HAM) with L-glutamine (Gibco Cat. #11765-054) containing 15 mM HEPES (Gibco Cat. #15630-080), 1% antibiotic/antimycotic (add 5 mL 100×, Gibco Cat. #15240-062 per 500 mL F-12), 250 μg/mL Zeocin (add 1.25 mL of 100 mg/mL Invitrogen R-250-01 per 500 mL F-12) and 10% Fetal Bovine Serum (Qualified, heat inactivated, Gibco Cat. #16140-063). The medium is removed by aspiration and the cells are washed with 10 mL of Hank's Balanced Salt solution (Gibco Cat. #14175-095). The salt solution is removed by aspiration and the cells are trypsinized with 5 mL of trypsin-EDTA (0.05% trypsin, 0.53 mM EDTA-4Na, Gibco Cat. #25300-070) for 1 min. The trypsin is removed by aspiration and the cells dislodged by tapping. Cell Culture medium (eg, 30 mL for 1:30 split) is immediately added and mixed well to inactivate trypsin. 1 mL of detached cells is added to new culture flasks containing fresh cell culture medium (eg, into 25 mL per T-150 flask), and mixed gently. The cells are incubated at 37° C. in 5% CO2. The medium is changed at 3 to 4 days interval (or as appropriate). The cells grow to confluency (approx. >75%-95%) within 7-8 days. All steps are done under sterile conditions.
The cells are washed twice gently with Hank's Balanced Salt solution (e.g,. use 10 mL per T-150 flask). The excess is removed and the cells are bathed for 15-30 min. in an enzyme-free Cell Dissociation Buffer (e.g. use 8 mL Hank's Based, Gibco Cat. #13150-016 per T-150 flask) until the cells are loosened. The contents are transferred to centrifuge tubes (50 mL) kept in an ice bath. All subsequent steps are done at 4° C. The tubes are centrifuged at 300×g for 15 min (1380 rpm on SORVAL, Model RT6000D, using the rotor for 50 mL tubes). The supernatant is discarded and the cells suspended in homogeneizing buffer (10 mM Tris-HCl containing 0.25 M sucrose and 1 mM EDTA, pH 7.4) ensuring that the volume of the buffer is about ten times the volume of the cell pellet. The cells are pooled into a centrifuge tube (50 mL) and homogenized with Polytron at setting 6 for 10 sec. The homogenate is transferred into a Potter-Elvjehm homogenizer and homogenized with 3 strokes. The homogenate is centrifuged at 1500×g for 10 min at 4° C. (3100 rpm using SORVAL, model RT6000D, using the rotor for 50 mL tubes). The pellet is discarded. The supernatant is centrifuged at 100,000×g for 60 min. at 4° C. (Beckman L8-80M ultracentrifuge; spin at 37,500 rpm with rotor type 70 Ti for 50 mL tubes; 38,000 rpm with type 80Ti for 15 mL tubes; or 35,800 rpm with rotor type 45Ti). The supernantant is discarded and the pellet suspended in 3 to 4 mL of Tris buffer (50 mM TRIS-HCl, pH 7.4). The protein content is estimated by the Bradford or Lowry method. The volume of the membrane suspension is adjusted with the membrane buffer (50 mM Tris-HCl containing 0.1% BSA and 0.1 mM PMSF) to give 3.0 mg/mL (or as appropriate) of protein. The membranes are aliquoted and stored at −70° C.
In wells of a 96-well format microtiter plate, is added 90, 110 or 130 μL (to make up a final volume of 200 μL) of assay buffer containing 50 mM of Tris-HCl (pH 7.4), BSA (heat inactivated, protease-free), […], 1 mg % aprotinin, 1 mg % leupeptin, 2 mg % 1,10-phenanthroline, 10 mg % trypsin inhibitor, and 0.1 mM PMSF. The inhibitors are added on the day of the experiment. […]
Compound COc1cc(C2=CCCCC2)c(Cl)cc1C(=O)N1Cc2ccc(C(=O)N(C)CCCN(C)C)n2Cc2ccccc21 [Example 2, 10-(5-Chloro-4-cyclohex-1-en-1-yl-2-methoxybenzoyl)-N-[3-(dimethylamino)propyl]-N-methyl-10,11-dihydro-5H-pyrrolo[2,1-c][1,4]benzodiazepine-3-carboxamide] has an inhibition at 0.1 µM of 19%. Work on Cc1cc(C(=O)N2Cc3ccc(C(=O)N4CCN(C)CC4)n3Cc3ccccc32)ccc1C1=CCCCC1 [Example 4, [10-(4-Cyclohex-1-en-1-yl-3-methyl-benzoyl)-10,11-dihydro-5H-pyrrolo[2,1-c][1,4]benzodiazepin-3-yl]-(4-methyl-piperazin-1-yl)-methanone] yielded an inhibition at 0.1 µM of 26%. With Cc1cc(C(=O)N2Cc3ccc(C(=O)N4CCN(CCCN(C)C)CC4)n3Cc3ccccc32)ccc1C1=CCCCC1 [Example 5, [10-(4-Cyclohex-1-en-1-yl-3-methyl-benzoyl)-10,11-dihydro-5H-pyrrolo[2,1-c][1,4]benzodiazepin-3-yl]-[4-(3-dimethylamino-propyl)-piperazin-1-yl]-methanone] the inhibition at 0.1 µM was 56%. For Cc1cc(C(=O)N2Cc3ccc(C(=O)N4CCN(C)CC4)n3Cc3ccccc32)ccc1C1=CCCc2ccccc21 [Example 6, {10-[4-(3,4-Dihydro-naphthalen-1-yl)-3-methyl-benzoyl]-10,11-dihydro-5H-benzo[e]pyrrolo[1,2-a][1,4]diazepin-3-yl}-(4-methyl-piperazin-1-yl)-methanone], the inhibition at 0.1 µM was 4%. Work on Cc1cc(C(=O)N2Cc3ccc(C(=O)N4CCN(CCCN(C)C)CC4)n3Cc3ccccc32)ccc1C1=CCCc2ccccc21 [Example 7, {10-[4-(3,4-Dihydro-naphthalen-1-yl)-3-methyl-benzoyl]-10,11-dihydro-5H-pyrrolo[2,1-c][1,4]benzodiazepin-3-yl}-[4-(3-dimethylamino-propyl)-piperazin-1-yl]-methanone] yielded an inhibition at 0.1 µM of 7%. For CC1=C(c2ccc(C(=O)N3Cc4ccc(C(=O)N5CCN(C)CC5)n4Cc4ccccc43)cc2C)CCCC1O (stereo not drawn) [Example 10, [4-(3-Hydroxy-2-methyl-cyclohex-1-en-1-yl)-3-methyl-phenyl]-[3-(4-methyl-piperazine-1carbonyl)-10,11-dihydro-5H-pyrrolo[2,1-c][1,4]benzodiazepin-10-yl]-methanone], the inhibition at 0.1 µM was 52%. CC1=C(c2ccc(C(=O)N3Cc4ccc(C(=O)N5CCN(C)CC5)n4Cc4ccccc43)cc2C)CCC[C@H]1O [Example 11, [4-((3R)-3-Hydroxy-2-methyl-cyclohex-1-en-1-yl)-3-methyl-phenyl]-[3-(4-methyl-piperazine-1-carbonyl)-10,11-dihydro-5H-pyrrolo [2,1-c][1,4]benzodiazepin-10-yl]-methanone] gave an inhibition at 0.1 µM of 26%. Cc1cc(C(=O)N2Cc3ccc(C(=O)N4CCCN(C)CC4)n3Cc3ccccc32)ccc1C1=CCCCC1 [Example 13, {10-[4-(1-Cyclohex-1-en-1-yl)-3-methylbenzoyl]-10,11-dihydro-5H-pyrrolo[2,1-c][1,4]benzodiazepin-3-yl}(4-methyl-1,4-diazepan-1-yl)methanone] was tested, and the “V1a % inhibition @ 100 nM” value was 34%. In the case of Cc1cc(C(=O)N2Cc3ccc(C(=O)NCCCN(C)C)n3Cc3ccccc32)ccc1C1=CCCCC1 [Example 14, 10-[4-(1-Cyclohex-1-en-1-yl)-3-methylbenzoyl]-N-[3-(dimethylamino)propyl]-10,11-dihydro-5H-pyrrolo[2,1-c][1,4]benzodiazepine-3-carboxamide], the “V1a % inhibition @ 100 nM” value is reported as 24%. Cc1cc(C(=O)N2Cc3ccc(C(=O)N(C)CCN(C)C)n3Cc3ccccc32)ccc1C1=CCCCC1 [Example 15, 10-[4-(1-Cyclohex-1-en-1-yl)-3-methylbenzoyl]-N-[2-(dimethylamino)ethyl]-N-methyl-10,11-dihydro-5H-pyrrolo[2,1-c][1,4]benzodiazepine-3-carboxamide] was tested, and the “V1a % inhibition @ 100 nM” value was 71%. Cc1cc(C(=O)N2Cc3ccc(C(=O)N(C)CCCN(C)C)n3Cc3ccccc32)ccc1C1=CCCCC1 [Example 16, 10-[4-(1-Cyclohex-1-en-1-yl)-3-methylbenzoyl]-N-[3-(dimethylamino)propyl]-N-methyl-10,11-dihydro-5H-pyrrolo[2,1-c][1 ,4]benzodiazepine-3-carboxamide] was tested, and the “V1a % inhibition @ 100 nM” value was 55%. In the case of Cc1cc(C(=O)N2Cc3ccc(C(=O)N4CCC(N5CCCCC5)CC4)n3Cc3ccccc32)ccc1C1=CCCCC1 [Example 17, {10-[4-(1-Cyclohex-1-en-1-yl)-3-methylbenzoyl]-10,11-dihydro-5H-pyrrolo[2,1-c][1,4]benzodiazepin-3-yl}[4-(1-piperidinyl)-1-piperidinyl]methanone], the “V1a % inhibition @ 100 nM” value is reported as 30%. In the case of Cc1cc(C(=O)N2Cc3ccc(C(=O)NCCCn4ccnc4)n3Cc3ccccc32)ccc1C1=CCCCC1 [Example 18, 10-[4-(1-Cyclohex-1-en-1-yl)-3-methylbenzoyl]-N-[3-(1H-imidazol-1-yl)propyl]10,11-dihydro-5H-pyrrolo[2,1-c][1,4]benzodiazepine-3-carboxamide], the “V1a % inhibition @ 100 nM” value is reported as 7%. With Cc1cc(C(=O)N2Cc3ccc(C(=O)N4CCC(N5CCCC5)CC4)n3Cc3ccccc32)ccc1C1=CCCCC1 [Example 19, {10-[4-(1-Cyclohex-1-en-1-yl)-3-methylbenzoyl]-10,11-dihydro-5H-pyrrolo[2,1c][1,4]benzodiazepin-3-yl}[4-(1-pyrrolidinyl)-1-piperidinyl]methanone] the “V1a % inhibition @ 100 nM” value was 33%. In the case of Cc1cc(C(=O)N2Cc3ccc(C(=O)NCCN4CCCCC4)n3Cc3ccccc32)ccc1C1=CCCCC1 [Example 20, 10-[4-(1-Cyclohex-1-en-1-yl)-3-methylbenzoyl]-N-[2-(1-piperidinyl)ethyl]-10,11-dihydro-5H-pyrrolo[2,1-c][1,4]benzodiazepine-3-carboxamide], the “V1a % inhibition @ 100 nM” value is reported as 23%. For Cc1cc(C(=O)N2Cc3ccc(C(=O)NCCC4CCCN4C)n3Cc3ccccc32)ccc1C1=CCCCC1 (stereo not drawn) [Example 21, 10-[4-(1-Cyclohex-1-en-1-yl)-3-methylbenzoyl]-N-[2-(1-methyl-2-pyrrolidinyl)ethyl]-10,11-dihydro-5H-pyrrolo[2,1-c][1,4]benzodiazepine-3-carboxamide], the “V1a % inhibition @ 100 nM” value was 28%.

Same assay, conditions: value in parentheses
In the case of COc1cc(C2=CCCCC2)c(Cl)cc1C(=O)N1Cc2ccc(C(=O)N3CCC[C@H]3CN3CCCC3)n2Cc2ccccc21 [Example 1, 4-Chloro-5-cyclohex-1-en-1-yl-2-[(3-{[(2S)-2-(pyrrolidin-1-ylmethyl)pyrrolidin-1-yl]carbonyl}-5H-pyrrolo [2,1-c][1,4]benzodiazepin-10(11H)-yl)carbonyl]phenyl methyl ether], the IC50 is reported as 1.28 µM. Work on COc1cc(C2=CCCCC2)c(Cl)cc1C(=O)N1Cc2ccc(C(=O)N(C)CCCN(C)C)n2Cc2ccccc21 [Example 3, 10-(5-Chloro-4-cyclohex-1-en-1-yl-2-methoxybenzoyl)-N-[3-(dimethylamino)propyl]-N-methyl-10,11-dihydro-5H-pyrrolo[2,1-c][1,4]benzodiazepine-3-carboxamide citric acid salt] yielded an IC50 of 0.977 µM.
